Assay results reported in patent US20070281992A1, “COMBINATION OF GYRASE B INHIBITORS AND PROTEIN SYNTHESIS INHIBITORS AND USES THEREOF” (priority 2006, published 2007).
Like-named read-outs stand apart in the source and are kept apart here.

Legend:
[1] = system: Methicillin-Susceptible Staphylococcus aureus Isolates; assay: MIC assay (NCCLS broth dilution), MSSA clinical isolates; type: cell-based; settings: for MIC: read-out: Minimal Inhibitory Concentration
Procedure: (§1) Antibiotics: novobiocin, tetracycline, minocycline, oxacillin, and vancomycin were all purchased from Sigma-Aldrich. Linezolid was obtained from Pfizer, Inc. Novobiocin/tetracycline and novobiocin/minocycline were tested in a 2.5:1 ratio to mimic the serum levels. (Vavra, J. J., 1967, Development of resistance to novobiocin, tetracycline, and novobiocin-tetracycline combinations in Staphylococcus aureus populations, J. Bacteriol 93(3):801). Compounds were tested across a concentration range consisting of 11 two-fold serial dilutions of test agent.
(§2) Stock solutions were prepared in sterile deionized water; novobiocin stock concentration was 1600 μg/mL and all other drugs stock solutions were prepared at 640 μg/mL. The stock solutions were allowed to sit at room temperature for one hour to auto-sterilize prior to use in the test. All compounds were in solution in water. The control agent was vancomycin hydrochloride, Sigma Chemical Lot # 015K0825.
(§3) The test organisms for the assay were 52 MSSA, 52 MRSA, 8 VISA, 7 VISE, and 3 LRSA isolates. Quality control strains included Staphylococcus aureus 0100 (ATCC 29213) and Enterococcus faecalis (ATCC 29212).
(§4) The MIC assay was performed according to published NCCLS guidelines. (National Committee for Clinical Laboratory Standards, Methods for Dilution Antimicrobial Susceptibility Tests for Bacteria that Grow Aerobically; Approved Standard-Sixth Edition, NCCLS Document M7-A6 [ISBN 1-56238-486-4], NCCLS, 940 West Valley Road, Suite 1400, Wayne, Pa. 19087-1898 USA, 2003). The test medium was Mueller Hinton II Broth for all organisms.

[2] = system: Methicillin-Resistant Staphylococcus aureus Isolates; assay: MIC assay (NCCLS broth dilution), MRSA clinical isolates; type: cell-based; settings: for MIC: Staphylococcus aureus, read-out: Minimal Inhibitory Concentration
Procedure: as §1, §2, §3, §4

[3] = Staphylococcus aureus, 52 MSSA isolates, combinations at 2.5:1, given as NB/partner

- MIC Range ([1]; 52 MSSA isolates, Mueller Hinton II Broth, combinations at 2.5:1, given as NB/partner): .06 to .12 µg/mL
- MIC ([1]; Staphylococcus aureus, MSSA isolate 133, 03MAR06): 0.06 µg/mL
- MIC ([1]; Staphylococcus aureus, MSSA isolate 134, 03MAR06): 0.06 µg/mL
- MIC ([1]; Staphylococcus aureus, MSSA isolate 135, 03MAR06): 0.06 µg/mL
- MIC ([1]; Staphylococcus aureus, MSSA isolate 753, 22FEB06): 0.12 µg/mL
- MIC ([1]; Staphylococcus aureus, MSSA isolate 754, 22FEB06): 0.12 µg/mL
- MIC ([1]; Staphylococcus aureus, MSSA isolate 754, 24FEB06): 0.12 µg/mL
- MIC ([1]; Staphylococcus aureus, MSSA isolate 755, 22FEB06): 0.12 µg/mL
- MIC ([1]; Staphylococcus aureus, MSSA isolate 756, 03MAR06): 0.06 µg/mL
- MIC ([1]; Staphylococcus aureus, MSSA isolate 779, 22FEB06): 0.12 µg/mL
- MIC ([1]; Staphylococcus aureus, MSSA isolate 780, 03MAR06): 0.12 µg/mL
- MIC ([1]; Staphylococcus aureus, MSSA isolate 781, 03MAR06): 0.06 µg/mL
- MIC ([1]; Staphylococcus aureus, MSSA isolate 782, 22FEB06): 0.12 µg/mL
- MIC ([1]; Staphylococcus aureus, MSSA isolate 783, 22FEB06): 0.12 µg/mL
- MIC ([1]; Staphylococcus aureus, MSSA isolate 784, 22FEB06): 0.12 µg/mL
- MIC ([1]; Staphylococcus aureus, MSSA isolate 785, 22FEB06): 0.12 µg/mL
- MIC ([1]; Staphylococcus aureus, MSSA isolate 786, 22FEB06): 0.12 µg/mL
- MIC ([1]; Staphylococcus aureus, MSSA isolate 787, 22FEB06): 0.12 µg/mL
- MIC ([1]; Staphylococcus aureus, MSSA isolate 788, 22FEB06): 0.12 µg/mL
- MIC ([1]; Staphylococcus aureus, MSSA isolate 789, 24FEB06): 0.12 µg/mL
- MIC ([1]; Staphylococcus aureus, MSSA isolate 790, 24FEB06): 0.12 µg/mL
- MIC ([1]; Staphylococcus aureus, MSSA isolate 791, 24FEB06): 0.12 µg/mL
- MIC ([1]; Staphylococcus aureus, MSSA isolate 792, 03MAR06): 0.06 µg/mL
- MIC ([1]; Staphylococcus aureus, MSSA isolate 793, 24FEB06): 0.12 µg/mL
- MIC ([1]; Staphylococcus aureus, MSSA isolate 794, 24FEB06): 0.12 µg/mL
- MIC ([1]; Staphylococcus aureus, MSSA isolate 994, 22FEB06): 0.12 µg/mL
- MIC ([1]; Staphylococcus aureus, MSSA isolate 995, 03MAR06): 0.12 µg/mL
- MIC ([1]; Staphylococcus aureus, MSSA isolate 996, 22FEB06): 0.06 µg/mL
- MIC ([1]; Staphylococcus aureus, MSSA isolate 997, 22FEB06): 0.12 µg/mL
- MIC ([1]; Staphylococcus aureus, MSSA isolate 998, 03MAR06): 0.06 µg/mL
- MIC ([1]; Staphylococcus aureus, MSSA isolate 999, 22FEB06): 0.12 µg/mL
- MIC ([1]; Staphylococcus aureus, MSSA isolate 1000, 24FEB06): 0.12 µg/mL
- MIC ([1]; Staphylococcus aureus, MSSA isolate 1001, 24FEB06): 0.12 µg/mL
- MIC ([1]; Staphylococcus aureus, MSSA isolate 1002, 24FEB06): 0.12 µg/mL
- MIC ([1]; Staphylococcus aureus, MSSA isolate 1003, 03MAR06): 0.06 µg/mL
- MIC ([1]; Staphylococcus aureus, MSSA isolate 1005, 24FEB06): 0.06 µg/mL
- MIC ([1]; Staphylococcus aureus, MSSA isolate 1006, 24FEB06): 0.12 µg/mL
- MIC ([1]; Staphylococcus aureus, MSSA isolate 1007, 24FEB06): 0.12 µg/mL
- MIC ([1]; Staphylococcus aureus, MSSA isolate 1008, 24FEB06): 0.06 µg/mL
- MIC ([1]; Staphylococcus aureus, MSSA isolate 1009, 24FEB06): 0.12 µg/mL
- MIC ([1]; Staphylococcus aureus, MSSA isolate 1131, 24FEB06): 0.06 µg/mL
- MIC ([1]; Staphylococcus aureus, MSSA isolate 1132, 03MAR06): 0.06 µg/mL
- MIC ([1]; Staphylococcus aureus, MSSA isolate 1133, 24FEB06): 0.12 µg/mL
- MIC ([1]; Staphylococcus aureus, MSSA isolate 1134, 24FEB06): 0.12 µg/mL
- MIC ([1]; Staphylococcus aureus, MSSA isolate 1654, 03MAR06): 0.12 µg/mL
- MIC ([1]; Staphylococcus aureus, MSSA isolate 1656, 03MAR06): 0.06 µg/mL
- MIC ([1]; Staphylococcus aureus, MSSA isolate 1662, 03MAR06): 0.06 µg/mL
- MIC ([1]; Staphylococcus aureus, MSSA isolate 1663, 03MAR06): 0.12 µg/mL
- MIC ([1]; Staphylococcus aureus, MSSA isolate 1666, 03MAR06): 0.06 µg/mL
- MIC ([1]; Staphylococcus aureus, MSSA isolate 1667, 03MAR06): 0.12 µg/mL
- MIC ([1]; Staphylococcus aureus, MSSA isolate 1668, 03MAR06): 0.06 µg/mL
- MIC ([1]; Staphylococcus aureus, MSSA isolate 1671, 03MAR06): 0.06 µg/mL
- MIC ([1]; Staphylococcus aureus, MSSA isolate 1728, 03MAR06): 0.06 µg/mL
- MIC ([1]; Staphylococcus aureus, MSSA isolate 1728, retest 09MAR06): 0.06 µg/mL
- MIC50 [1, 3]: 0.12 µg/mL
- MIC90 [1, 3]: 0.12 µg/mL
- MIC Range ([2]; 52 MRSA isolates, combinations at 2.5:1, given as NB/partner): .06 to .16 µg/mL
- MIC ([2]; MRSA isolate 757, 24FEB06): 8 µg/mL
- MIC ([2]; MRSA isolate 758, 03MAR06): 0.12 µg/mL
- MIC ([2]; MRSA isolate 758, 24FEB06): 0.12 µg/mL
Structure (SMILES): CN(C)c1ccc(O)c2c1C[C@H]1C[C@H]3[C@H](N(C)C)C(O)=C(C(N)=O)C(=O)[C@@]3(O)C(O)=C1C2=O [MI, minocycline]
